SMILES strings stand for the structures. pIC50: −log10 of the molar value. A value given as a limit tells only on which side of the number the result lay.

This assay concerns the target T1, hAT2 (Homo sapiens, UniProt P50052).
T1 construct: expressed in transfected cells; host or cells: HEK-293
T1 sequence (P50052 1-363): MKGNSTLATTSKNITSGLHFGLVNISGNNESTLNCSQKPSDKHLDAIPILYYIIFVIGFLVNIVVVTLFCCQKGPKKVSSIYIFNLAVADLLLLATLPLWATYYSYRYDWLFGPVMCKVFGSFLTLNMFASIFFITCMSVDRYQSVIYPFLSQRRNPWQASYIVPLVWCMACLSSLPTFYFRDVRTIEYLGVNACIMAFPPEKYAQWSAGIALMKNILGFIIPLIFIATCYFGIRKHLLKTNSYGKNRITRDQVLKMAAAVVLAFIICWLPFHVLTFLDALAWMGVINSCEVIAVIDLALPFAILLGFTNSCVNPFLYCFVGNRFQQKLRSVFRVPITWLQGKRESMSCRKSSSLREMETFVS
Put plainly: hAT2 receptor binding assay (SPA, [125I]-Sar1-Ile8-Angiotensin II). To be noted: membrane of HEK-293 cells overexpressing hAT2; 0.1 nM 125I ligand. The method, then:
hAT2 Receptor Binding Assay
Protease inhibitor mixture, free of ethylenediaminetetraacetic acid-1 tablets (Roche #11873580001) (50 mL plus one piece)
Experimental Methods and Steps
The reference ligand PD123319 and the test compound were prepared into a 750 μM mother liquor by DMSO; each compound was prepared into a solution of 8 concentration gradients (up to a concentration of 750 μM, 3-fold dilution) and 10 μl of the solution was added to a master of a 384-well plate per well.
The SPA beads were prepared to a mother liquor of 25 mg/ml by the buffer;
The isotope [^125I]-Sar1-Ile8-Angiotensin II was prepared into a mother liquor of 50 μCi/ml by adding pure water.
The cell membrane overexpressing hAT2 in HEK-293 cells was prepared to 2.5 mg/ml by the buffer.
200 nl of compound was aspirated from the mother plate with ECHO to each well of the 384-well test plate. ZPE was added to an equal volume of DMSO. (The concentration of the test compound in the reaction was diluted by 250 times).
A 50 ml membrane solution containing 10 μg/μl of magnetic beads and 0.05 μg/μl of AT2 was prepared, placed on a shaker and uniformly mixed. (100 rpm, 30 min). The test plate finally contained an hAT2 membrane with 1.25 μg/well and magnetic beads with 250 μg/well.
A 3.2 ml membrane liquid mixture was added to the compound test plate by using a Multidrop Combi pipette, and 25 μl was added to each well.
A 0.2 nM solution was prepared with 50 μCi/ml of isotope [^125I]-Sar1-Ile8-Angiotensin II mother liquor by the buffer, and 0.2 nM of ^125I was added to the compound test plate with a Multidrop Combi pipette. A volume of 25 μl was added to each well. The final concentration of ^125I isotope is 0.1 nM.
The prepared test plate was placed on a shaker overnight at room temperature at 200 rpm.
The test plate was centrifuged with a centrifuge at 1200 rpm for 1 min.
The centrifuged test plate was read with Microbeta.
On to `COc1ccc2c(c1OCc1ccccc1)C[C@@H](C(=O)O)N(C(=O)[C@@H](OC(C)(C)C)c1ccccc1)C2` [Compound 39], for which the pIC50 (commonly the negative decadic logarithm of the IC50, by convention in mol/L) is 7.73. To `COc1ccc2c(c1OCc1ccccc1)C[C@@H](C(=O)O)N(C(=O)[C@@H](NC1CCCC1)c1ccccc1)C2` [Compound 40] belongs 8.04; to `COc1ccc2c(c1OCc1ccccc1)C[C@@H](C(=O)O)N(C(=O)[C@H](NC1CCCC1)c1ccccc1)C2` [Compound 41], 6.66; to `COc1ccc2c(c1OCc1ccccc1)C[C@@H](C(=O)O)N(C(=O)[C@@H](NC(=O)C1CCCC1)c1ccccc1)C2` [Compound 42], 6.79. As for `COc1ccc2c(c1OCc1ccccc1)C[C@@H](C(=O)O)N(C(=O)[C@H](NC(=O)C1CCCC1)c1ccccc1)C2` [Compound 43], the figure is below 5.52; as for `COc1ccc2c(c1OCc1ccccc1)C[C@@H](C(=O)O)N(C(=O)[C@@H](OC1CCCCC1)c1ccccc1)C2` [Compound 44], 8.10; as for `COc1ccc2c(c1OCc1ccccc1)C[C@@H](C(=O)O)N(C(=O)[C@H](c1ccccc1)N(C)C1CCCC1)C2` [Compound 45], 6.31. To `COc1ccc2c(c1OCc1ccccc1)C[C@@H](C(=O)O)N(C(=O)C(Oc1ccccc1)c1ccccc1)C2` (some centres unmarked) [Compound 46] belongs 6.73; to `COc1ccc2c(c1OCc1ccccc1)C[C@@H](C(=O)O)N(C(=O)C(OC1CCCC1)c1ccccc1)C2` (some centres unmarked) [Compound 47], 7.77. With `COc1ccc2c(c1OCc1ccccc1)C[C@@H](C(=O)O)N(C(=O)C(OC1CCC(O)CC1)c1ccccc1)C2` (some centres unmarked) [Compound 48], the pIC50 is 7.67. `COc1ccc2c(c1OCc1ccccc1)C[C@@H](C(=O)O)N(C(=O)[C@H](OC1CC(F)(F)C1)c1ccccc1)C2` [Compound 52] showed a pIC50 of 6.90.

Turning to `COc1ccc2c(c1OCc1ccccc1)C[C@@H](C(=O)O)N(C(=O)[C@@H](OC1CCCC1)c1ccc(F)cc1)C2` [Compound 53], the negative logarithm of the IC50 (pIC50) was 7.08. To `COc1ccc2c(c1OCc1ccccc1)C[C@@H](C(=O)O)N(C(=O)[C@H](OC1CCCC1)c1ccc(F)cc1)C2` [Compound 54] belongs below 5.52; to `COc1ccc2c(c1OCc1ccccc1)C[C@@H](C(=O)O)N(C(=O)[C@@H](OC1CC3CC3C1)c1ccccc1)C2` (some centres unmarked) [Compound 55], 8.36. In turn, `COc1ccc2c(c1OCc1ccccc1)C[C@@H](C(=O)O)N(C(=O)[C@H](OC1CC3CC3C1)c1ccccc1)C2` (some centres unmarked) [Compound 56] showed a pIC50 of 6.65. As for `COc1ccc2c(c1OCc1ccccc1)C[C@@H](C(=O)O)N(C(=O)[C@H](OC1(C)CCCC1)c1ccccc1)C2` [Compound 58], the figure is 6.81; as for `COc1ccc2c(c1OCc1ccccc1)C[C@@H](C(=O)O)N(C(=O)[C@H](O[C@H]1CC[C@@H](O)CC1)c1ccccc1)C2` [Compound 64], 6.43. As for `COc1ccc2c(c1OCc1ccccc1)C[C@@H](C(=O)O)N(C(=O)[C@@H](O[C@H]1CC[C@H](O)CC1)c1ccccc1)C2` [Compound 65], the figure is 6.80; as for `COc1ccc2c(c1OCc1ccccc1)C[C@@H](C(=O)O)N(C(=O)[C@H](O[C@H]1CC[C@H](O)CC1)c1ccccc1)C2` [Compound 66], below 5.52. As for `Cc1ccc2c(c1OCc1ccccc1)C[C@@H](C(=O)O)N(C(=O)[C@@H](OC1CC(F)(F)C1)c1ccccc1)C2` [Compound 67], the figure is 8.80. For `Cc1ccc2c(c1OCc1ccccc1)C[C@@H](C(=O)O)N(C(=O)[C@H](OC1CC(F)(F)C1)c1ccccc1)C2` [Compound 68], the pIC50 is 7.17. In turn, `Cc1ccc2c(c1OCc1ccccc1)C[C@@H](C(=O)O)N(C(=O)[C@@H](OC1(C)CCCC1)c1ccccc1)C2` [Compound 69] gave a pIC50 of 8.77.

The compound `Cc1ccc2c(c1OCc1ccccc1)C[C@@H](C(=O)O)N(C(=O)[C@H](OC1(C)CCCC1)c1ccccc1)C2` [Compound 70] gave a pIC50 of 7.18. As for `Cc1ccc2c(c1OCc1ccccc1)C[C@@H](C(=O)O)N(C(=O)[C@@H](O[C@H]1CC[C@@H](O)CC1)c1ccccc1)C2` [Compound 71], the figure is 5.96; as for `Cc1ccc2c(c1OCc1ccccc1)C[C@@H](C(=O)O)N(C(=O)[C@H](O[C@H]1CC[C@@H](O)CC1)c1ccccc1)C2` [Compound 72], 8.28. As for `O=C(O)[C@@H]1Cc2c(ccc(Cl)c2OCc2ccccc2)CN1C(=O)[C@@H](OC1CC(F)(F)C1)c1ccccc1` [Compound 73], the figure is 8.43; as for `O=C(O)[C@@H]1Cc2c(ccc(Cl)c2OCc2ccccc2)CN1C(=O)[C@H](OC1CC(F)(F)C1)c1ccccc1` [Compound 74], 6.89; as for `CC1(O[C@H](C(=O)N2Cc3ccc(Cl)c(OCc4ccccc4)c3C[C@H]2C(=O)O)c2ccccc2)CCCC1` [Compound 75], 8.41. To `CC1(O[C@@H](C(=O)N2Cc3ccc(Cl)c(OCc4ccccc4)c3C[C@H]2C(=O)O)c2ccccc2)CCCC1` [Compound 76] belongs 7.14; to `O=C(O)[C@@H]1Cc2c(ccc(Cl)c2OCc2ccccc2)CN1C(=O)[C@@H](O[C@H]1CC[C@@H](O)CC1)c1ccccc1` [Compound 77], 6.06. For `O=C(O)[C@@H]1Cc2c(ccc(Cl)c2OCc2ccccc2)CN1C(=O)[C@H](O[C@H]1CC[C@@H](O)CC1)c1ccccc1` [Compound 78], the pIC50 is 8.13.

On to `CC1(O[C@H](C(=O)N2Cc3cccc(OCc4ccccc4)c3C[C@H]2C(=O)O)c2ccccc2)CCCC1` [Compound 79], for which the pIC50 is 8.24. On to `CC1(O[C@@H](C(=O)N2Cc3cccc(OCc4ccccc4)c3C[C@H]2C(=O)O)c2ccccc2)CCCC1` [Compound 80], for which the pIC50 was 6.49.

Consider `O=C(O)[C@@H]1Cc2c(cccc2OCc2ccccc2)CN1C(=O)[C@H](O[C@H]1CC[C@@H](O)CC1)c1ccccc1` [Compound 82], for which the pIC50 is 7.68. With `O=C(O)[C@@H]1Cc2c(cccc2OCc2ccccc2)CN1C(=O)[C@@H](OC1CC(F)(F)C1)c1ccccc1` [Compound 83], the pIC50 was 8.49. To `O=C(O)[C@@H]1Cc2c(cccc2OCc2ccccc2)CN1C(=O)[C@H](OC1CC(F)(F)C1)c1ccccc1` [Compound 84] belongs 6.32; to `O=C(O)[C@@H]1Cc2c(cccc2OCc2ccccc2)CN1C(=O)[C@@H](O[C@H]1C[C@@H](O)C1)c1ccccc1` [Compound 85], 7.08. In turn, `O=C(O)[C@@H]1Cc2c(cccc2OCc2ccccc2)CN1C(=O)[C@H](O[C@H]1C[C@@H](O)C1)c1ccccc1` [Compound 86] had a negative logarithm of the IC50 (pIC50) of 6.06. `O=C(O)[C@H]1Cc2c(ccc(Cl)c2OCc2ccccc2)CN1C(=O)[C@@H](OC1CCCC1)c1ccccc1` [Compound 108] had a pIC50 of 6.63. As for `N#Cc1ccc2c(c1OCc1ccccc1)C[C@@H](C(=O)O)N(C(=O)[C@@H](OC1CCCC1)c1ccccc1)C2` [Compound 109], the figure is 5.98; as for `N#Cc1ccc2c(c1OCc1ccccc1)C[C@H](C(=O)O)N(C(=O)[C@@H](OC1CCCC1)c1ccccc1)C2` [Compound 110], 6.26; as for `N#Cc1ccc2c(c1OCc1ccccc1)C[C@H](C(=O)O)N(C(=O)[C@H](OC1CCCC1)c1ccccc1)C2` [Compound 112], 6.93. `COc1ccc2c(c1OCc1ccccc1)C[C@@](C)(C(=O)O)N(C(=O)[C@@H](OC1CCCC1)c1ccccc1)C2` [Compound 113] showed a pIC50 below 5.52. To `COc1ccc2c(c1OCc1ccccc1)C[C@](C)(C(=O)O)N(C(=O)[C@H](OC1CCCC1)c1ccccc1)C2` [Compound 114] belongs 6.38. As for `COc1ccc2c(c1OCc1ccccc1)C[C@@](C)(C(=O)O)N(C(=O)[C@H](OC1CCCC1)c1ccccc1)C2` [Compound 115], the figure is 6.94; as for `COc1ccc2c(c1OCc1cccs1)C[C@@H](C(=O)O)N(C(=O)[C@@H](OC1CCCC1)c1ccccc1)C2` [Compound 117], 8.04; as for `O=C(O)[C@@H]1Cc2c(ccc(O)c2OCc2ccccc2)CN1C(=O)[C@@H](OC1CCCC1)c1ccccc1` [Compound 118], 7.52.

Values taken from US11021445B2, “Carboxylic acid derivative as AT2R receptor antagonist” (SHANDONG DANHONG PHARMACEUTICAL CO., LTD., priority 2017, dated 2021).
